Here are results for two compounds from ChEMBL document CHEMBL4725246, “Design, synthesis, and evaluation of a novel macrocyclic anti-EV71 agent” (Bioorg Med Chem, 2020).

Data set [1] is described as follows: Stability in CD-1 mouse plasma assessed as parent compound remaining upto 120 mins by LC-MS analysis. It counts as ADME, cell-free. Particulars: read-out: Stabilty.
Data set [2] concerns Enterovirus A71. Nature of the data set: Antiviral activity against Enterovirus A71 Shenzhen/120F1/09 infected in human RD cells assessed as […] measured after 72 hrs post-infection by CCK-8 assay. It counts as functional, organism-based. Particulars: Enterovirus A, Shenzhen/120F1/09, RD. For orientation: Formazan colour is commonly taken as a measure of viable cells.

The subject of data set [3] is Enterovirus A71. Nature of the data set: Antiviral activity against Enterovirus A71 SK-EV006 measured after 3 to 4 days by cell based assay. It counts as functional, organism-based. Particulars: Enterovirus A.

With `Cc1cc(C(=O)N[C@H](C(=O)NC2C(=O)N[C@@H](CC3CCNC3=O)/C=C/C(=O)OC/C=C/CCOC2c2ccccc2)C(C)C)no1` (stereo partly drawn), in data set [1], the remaining at 2 h was found to be 5.6%. In addition, the EC50 with Enterovirus A71 [2] was found to be 4500 nM.

As to `Cc1cc(C(=O)N[C@@H](Cc2ccc(F)cc2)C(=O)N[C@H](C=O)C[C@@H]2CCCNC2=O)no1`, the EC50 in the data set with Enterovirus A71 [3] was found to be 108 nM.

For orientation: EC50 means the concentration needed to bring the measured effect to its halfway point.
